# Data: patent US20170320870A1 (Medical Research Council Technology, priority 2009, published 2017)
# Molecular target: T1, LRRK2 wild type (recombinant human, catalytic domain amino acids 970-2527, GST-tagged) (Homo sapiens, UniProt Q5S007)
# T1 construct: The wild type used was recombinant human, catalytic domain (amino acids 970-2527) GST-tagged, expressed in insect cells; GST; purchased Invitrogen Corporation PV4873; host or cells: insect cells
# Test: LRRK2 wild type protein kinase assay ([γ-33P] ATP, peptide substrate […]), IC50
# Assay type: biochemical
# Conditions: LRRK2 (variant not given); read-out: Potency score, LRRK2 IC50
# Excerpt: All LRRK2 protein kinases were of human origin and were sourced from Invitrogen Corporation (Carlsbad, Calif. 92008 USA) unless otherwise indicated. The active mutant used was recombinant human, catalytic domain (amino acids 970-2527) containing a G2019S mutation, GST-tagged, expressed in insect cells (Invitrogen Cat#PV4881). The wild type used was recombinant human, catalytic domain (amino acids 970-2527) GST-tagged, expressed in insect cells (Invitrogen Cat#PV4873). The kinase dead mutant used was recombinant human, catalytic domain (amino acids 970-2527) containing a D1994A mutation, GST-tagged, expressed in insect cells (Invitrogen Cat#PM4041AE). No special measures were taken to activate any of the kinases.
# All assays were carried out at room temperature (˜21° C.) and were linear with respect to time and enzyme concentration under the conditions used. Assays were performed for 180 min in a 96 well format. LRRK2 was present at a concentration of approximately 5 nM. The enzyme was diluted and assayed in 50 mM Tris-HCl pH7.5, 0.1 mM EGTA, 1 mM DTT and 10 mM MgCl2. The concentration of magnesium chloride in the assay was 10 mM. The [γ-33P] […] The peptide substrate in the assay was […] at 100 μM.
# The assays were initiated with Mg/ATP and stopped by the addition of 25 μl/well 50% orthophosphoric acid. Reactions were harvested onto Whatman P81 Unifilter Plates (Fisher Scientific. Loughborough, LE115RG, UK. Cat# FDU-105-020U) using a Tomtec harvester. (Tomtec Hamden, Conn. 06514. USA) Plates were counted using a Perkin Elmer Top Count NX7. (Perkin Elmer, Shelton Conn. 06484-4794 USA)
# IC50 values of inhibitors were determined after carrying out assays at 10 different concentrations of each compound in duplicate.
# T1 sequence (Q5S007 970-2527): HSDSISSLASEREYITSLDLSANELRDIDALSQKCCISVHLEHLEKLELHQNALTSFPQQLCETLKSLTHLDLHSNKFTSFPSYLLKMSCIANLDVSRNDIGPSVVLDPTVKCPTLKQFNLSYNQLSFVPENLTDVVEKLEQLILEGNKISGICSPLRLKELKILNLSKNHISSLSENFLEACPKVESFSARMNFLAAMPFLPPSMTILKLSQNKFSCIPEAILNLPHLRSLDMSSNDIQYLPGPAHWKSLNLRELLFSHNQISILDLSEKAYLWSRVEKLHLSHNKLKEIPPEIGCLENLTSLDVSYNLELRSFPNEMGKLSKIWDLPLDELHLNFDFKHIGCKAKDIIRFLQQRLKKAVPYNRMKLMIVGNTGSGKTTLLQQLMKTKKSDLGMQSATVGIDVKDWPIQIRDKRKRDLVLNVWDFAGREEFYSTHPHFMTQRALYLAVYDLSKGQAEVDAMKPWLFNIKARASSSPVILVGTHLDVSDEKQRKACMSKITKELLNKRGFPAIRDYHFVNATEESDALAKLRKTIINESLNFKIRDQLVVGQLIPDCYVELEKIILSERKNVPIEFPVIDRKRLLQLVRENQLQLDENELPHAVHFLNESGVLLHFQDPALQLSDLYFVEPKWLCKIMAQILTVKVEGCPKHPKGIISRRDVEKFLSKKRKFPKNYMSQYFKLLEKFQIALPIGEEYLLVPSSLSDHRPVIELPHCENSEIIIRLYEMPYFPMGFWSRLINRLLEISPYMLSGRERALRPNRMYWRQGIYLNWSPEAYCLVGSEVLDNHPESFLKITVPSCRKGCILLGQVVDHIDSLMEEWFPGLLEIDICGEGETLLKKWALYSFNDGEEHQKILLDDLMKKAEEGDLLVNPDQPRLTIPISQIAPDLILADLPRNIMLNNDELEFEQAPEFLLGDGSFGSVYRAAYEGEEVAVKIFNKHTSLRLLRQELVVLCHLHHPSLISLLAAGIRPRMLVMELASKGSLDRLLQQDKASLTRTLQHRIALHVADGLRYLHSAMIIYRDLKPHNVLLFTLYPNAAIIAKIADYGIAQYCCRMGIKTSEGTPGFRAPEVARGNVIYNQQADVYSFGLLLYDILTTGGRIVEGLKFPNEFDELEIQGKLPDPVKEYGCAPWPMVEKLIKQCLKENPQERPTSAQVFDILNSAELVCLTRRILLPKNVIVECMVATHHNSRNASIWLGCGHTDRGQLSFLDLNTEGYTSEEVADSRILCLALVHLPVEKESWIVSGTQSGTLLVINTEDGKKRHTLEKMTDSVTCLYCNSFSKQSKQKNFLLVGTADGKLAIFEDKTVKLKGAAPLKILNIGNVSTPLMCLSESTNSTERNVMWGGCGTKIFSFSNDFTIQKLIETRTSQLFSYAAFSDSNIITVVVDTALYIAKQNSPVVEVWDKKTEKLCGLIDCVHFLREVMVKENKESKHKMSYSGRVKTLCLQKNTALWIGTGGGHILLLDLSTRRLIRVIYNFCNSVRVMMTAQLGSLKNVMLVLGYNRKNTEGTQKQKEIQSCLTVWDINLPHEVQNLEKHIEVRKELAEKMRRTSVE
row,IC50,Compound
1,1000 to 10000 nM,"Cc1n[nH]c2ccnc(NCc3cccc(F)c3)c12 [Example 317, (3-Fluoro-benzyl)-(3-methyl-1H-pyrazolo[4,3-c]pyridin-4-yl)-amine]"
2,1000 to 10000 nM,"Cc1n[nH]c2ccnc(N3CCN(c4ccccn4)CC3)c12 [Example 9, 3-Methyl-4-(4-pyridin-2-yl-piperazin-1-yl)-1H-pyrazolo[4,3-c]pyridine]"
3,1000 to 10000 nM,"Cc1n[nH]c2ccnc(NCCC(C)C)c12 [Example 343, (3-Methyl-butyl)-(3-methyl-1H-pyrazolo[4,3-c]pyridin-4-yl)-amine]"
4,< 100 nM,"CC(C)n1cc(-c2n[nH]c3ccnc(NC4CCCCC4)c23)cn1 [Example 235, Cyclohexyl-[3-(1-isopropyl-1H-pyrazol-4-yl)-1H-pyrazolo[4,3-c]pyridin-4-yl]-amine]"
5,100 to 1000 nM,"1-(3-Benzyl-piperidin-1-yl)- 3-(4-cyclohexylamino-1H- pyrazolo[4,3-c]pyridin-3-yl)- propan-1-one [Example 200]"
6,1000 to 10000 nM,"Cc1n[nH]c2ccnc(Nc3ccc(C(=O)N(C)C4CCCCC4)cc3)c12 [Example 107, N-Cyclohexyl-N-methyl-4-(3-methyl-1H-pyrazolo [4,3-c]pyridin-4-ylamino)-benzamide]"
7,1000 to 10000 nM,"COc1ccc(CNc2nccc3[nH]nc(C)c23)c(OC)c1 [Example 97, (2,4-Dimethoxy-benzyl)-(3-methyl-1H-pyrazolo[4,3-c]pyridin-4-yl)-amine]"
8,1000 to 10000 nM,"Cc1n[nH]c2ccnc(NCCCn3cccn3)c12 [Example 345, (3-Methyl-1H-pyrazolo[4,3-c]pyridin-4-yl)-(3-pyrazol-1-yl-propyl)-amine]"
9,100 to 1000 nM,"c1ccc(Cn2cc(-c3n[nH]c4ccnc(NC5CCCCC5)c34)cn2)nc1 [Example 234, Cyclohexyl-[3-(1-pyridin-2-ylmethyl-1H-pyrazol-4-yl)-1H-pyrazolo[4,3-c]pyridin-4-yl]-amine]"
10,1000 to 10000 nM,"Cc1n[nH]c2ccnc(N3CCN(c4cccc(Cl)c4)CC3)c12 [Example 7, 4-[4-(3-Chloro-phenyl)-piperazin-1-yl]-3-methyl-1H-pyrazolo[4,3-c]pyridine]"
11,100 to 1000 nM,"Cc1n[nH]c2ccnc(Nc3ccc(C(N)=O)cc3)c12 [Example 83, 4-(3-Methyl-1H-pyrazolo[4,3-c]pyridin-4-ylamino)-benzamide]"
12,< 100 nM,"CC(=O)Nc1cccc(CCc2n[nH]c3ccnc(NC4CCCCC4)c23)c1 [Example 222, N-{3-[2-(4-Cyclohexylamino-1H-pyrazolo[4,3-c]pyridin-3-yl)-ethyl]-phenyl}-acetamide]"
13,100 to 1000 nM,CC[C@H](C)Nc1nccc2[nH]nc(C)c12 [Example 44]
14,1000 to 10000 nM,"CNC(=O)c1ccc(-c2n[nH]c3ccnc(NC4CCCCC4)c23)cc1 [Example 139, 4-(4-Cyclohexylamino-1H-pyrazolo[4,3-c]pyridin-3-yl)-N-methyl-benzamide]"
15,< 100 nM,"COCC(=O)Nc1ccc(CCc2n[nH]c3ccnc(NC4CCCCC4)c23)cc1 [Example 272, N-{4-[2-(4-Cyclohexylamino-1H-pyrazolo[4,3-c]pyridin-3-yl)-ethyl]-phenyl}-2-methoxy-acetamide]"
16,1000 to 10000 nM,"Cc1n[nH]c2ccnc(Nc3ccc(S(C)(=O)=O)cc3)c12 [Example 322, (4-Methanesulfonyl-phenyl)-(3-methyl-1H-pyrazolo[4,3-c]pyridin-4-yl)-amine]"
17,100 to 1000 nM,"Clc1ccc(-c2n[nH]c3ccnc(NC4CCCCC4)c23)cc1 [Example 145, [3-(4-Chloro-phenyl)-1H-pyrazolo[4,3-c]pyridin-4-yl]-cyclohexyl-amine]"
18,100 to 1000 nM,"Cc1n[nH]c2ccnc(Nc3ccc4ncsc4c3)c12 [Example 313, Benzothiazol-6-yl-(3-methyl-1H-pyrazolo[4,3-c]pyridin-4-yl)-amine]"
19,1000 to 10000 nM,Cc1n[nH]c2ccnc(Nc3cccc(-c4nnco4)c3)c12 [Example 353]
20,100 to 1000 nM,"O=C(CCc1n[nH]c2ccnc(NC3CCCCC3)c12)N1CCOCC1 [Example 175, 3-(4-Cyclohexylamino-1H-pyrazolo[4,3-c]pyridin-3-yl)-1-morpholin-4-yl-propan-1-one]"

row,IC50,Compound
1,100 to 1000 nM,"COC1CCCN(C(=O)CCc2n[nH]c3ccnc(NC4CCCCC4)c23)C1 (stereo not drawn) [Example 196, 3-(4-Cyclohexylamino-1H-pyrazolo[4,3-c]pyridin-3-yl)-1-(3-methoxy-piperidin-1-yl)-propan-1-one]"
2,100 to 1000 nM,"O=C(CCc1n[nH]c2ccnc(NC3CCCCC3)c12)N1CCC(O)(c2ccccc2)CC1 [Example 176, 3-(4-Cyclohexylamino-1H-pyrazolo[4,3-c]pyridin-3-yl)-1-(4-hydroxy-4-phenyl-piperidin-1-yl)-propan-1-one]"
3,100 to 1000 nM,"O=C(CCc1n[nH]c2ccnc(NC3CCCCC3)c12)NC1CCCC1 [Example 184, 3-(4-Cyclohexylamino-1H-pyrazolo[4,3-c]pyridin-3-yl)-N-cyclopentyl-propionamide]"
4,1000 to 10000 nM,"Cc1n[nH]cc1Nc1nccc2[nH]nc(C)c12 [Example 82, (3-Methyl-1H-pyrazolo[4,3-c]pyridin-4-yl)-(3-methyl-1H-pyrazol-4-yl)-amine]"
5,1000 to 10000 nM,"O=C(CCc1n[nH]c2ccnc(NC3CCCCC3)c12)NCC1CCOCC1 [Example 185, 3-(4-Cyclohexylamino-1H-pyrazolo[4,3-c]pyridin-3-yl)-N-(tetrahydro-pyran-4-ylmethyl)-propionamide]"
6,< 100 nM,"Brc1n[nH]c2ccnc(NC3CCCCC3)c12 [Example 134, (3-Bromo-1H-pyrazolo[4,3-c]pyridin-4-yl)-cyclohexyl-amine]"
7,100 to 1000 nM,"Cc1n[nH]c2ccnc(NCCc3cccc(F)c3)c12 [Example 333, [2-(3-Fluoro-phenyl)-ethyl]-(3-methyl-1H-pyrazolo[4,3-c]pyridin-4-yl)-amine]"
8,100 to 1000 nM,c1cc(-c2n[nH]c3ccnc(NC4CCCCC4)c23)cc(-n2cccn2)c1 [Example 155]
9,1000 to 10000 nM,"CNC(=O)CCc1n[nH]c2ccnc(NC3CCCCC3)c12 [Example 210, 3-(4-Cyclohexylamino-1H-pyrazolo[4,3-c]pyridin-3-yl)-N-methyl-propionamide]"
10,1000 to 10000 nM,"O=C(CCc1n[nH]c2ccnc(NC3CCCCC3)c12)Nc1cccnc1 [Example 188, 3-(4-Cyclohexylamino-1H-pyrazolo[4,3-c]pyridin-3-yl)-N-pyridin-3-yl-propionamide]"
11,< 100 nM,"Cc1n[nH]c2ccnc(OC3CCCCC3)c12 [Example 114, 4-Cyclohexyloxy-3-methyl-1H-pyrazolo[4,3-c]pyridine]"
12,100 to 1000 nM,"Cc1n[nH]c2ccnc(Nc3ccc4cn[nH]c4c3)c12 [Example 93, (1H-Indazol-6-yl)-(3-methyl-1H-pyrazolo[4,3-c]pyridin-4-yl)-amine]"
13,100 to 1000 nM,"Cc1n[nH]c2ccnc(Nc3ccc(F)cc3)c12 [Example 311, (4-Fluoro-phenyl)-(3-methyl-1H-pyrazolo[4,3-c]pyridin-4-yl)-amine]"
14,100 to 1000 nM,"N#CCc1ccc(-c2n[nH]c3ccnc(NC4CCCCC4)c23)cc1 [Example 156, [4-(4-Cyclohexylamino-1H-pyrazolo[4,3-c]pyridin-3-yl)-phenyl]-acetonitrile]"
15,100 to 1000 nM,"Cc1n[nH]c2ccnc(NCc3ccccc3Cl)c12 [Example 315, (2-Chloro-benzyl)-(3-methyl-1H-pyrazolo[4,3-c]pyridin-4-yl)-amine]"
16,1000 to 10000 nM,"Fc1cc(C(F)(F)F)ccc1-c1n[nH]c2ccnc(NC3CCCCC3)c12 [Example 166, Cyclohexyl-[3-(2-fluoro-4-trifluoromethyl-phenyl)-1H-pyrazolo[4,3-c]pyridin-4-yl]-amine]"
17,100 to 1000 nM,"O=C(CCc1n[nH]c2ccnc(NC3CCCCC3)c12)N1CCCC(C(F)(F)F)C1 (stereo not drawn) [Example 202, 3-(4-Cyclohexylamino-1H-pyrazolo[4,3-c]pyridin-3-yl)-1-(3-trifluoromethyl-piperidin-1-yl)-propan-1-one]"
18,100 to 1000 nM,"Cc1n[nH]c2ccnc(O[C@@H](C)C(C)C)c12 [Example 292, 4-((S)-1,2-Dimethyl-propoxy)-3-methyl-1H-pyrazolo [4,3-c]pyridine]"
19,100 to 1000 nM,"Cc1noc(C2CCCN(C(=O)CCc3n[nH]c4ccnc(NC5CCCCC5)c34)C2)n1 (stereo not drawn) [Example 197, 3-(4-Cyclohexylamino-1H-pyrazolo[4,3-c]pyridin-3-yl)-1-[3-(3-methyl-1,2,4-oxadiazol-5-yl)-piperidin-1-yl]-propan-1-one]"
20,1000 to 10000 nM,"COc1cccc(-c2nccc3[nH]nc(C)c23)c1 [Example 57, 4-(3-Methoxy-phenyl)-3-methyl-1H-pyrazolo[4,3-c]pyridine]"

row,Compound,IC50
1,"Cc1n[nH]c2ccnc(Nc3ccc4c(c3)CN(C)CC4)c12 [Example 75, (3-Methyl-1H-pyrazolo[4,3-c]pyridin-4-yl)-(2-methyl-1,2,3,4-tetrahydro-isoquinolin-7-yl)-amine]",100 to 1000 nM
2,CO[C@@H](C)COc1nccc2[nH]nc(C)c12 [Example 287],1000 to 10000 nM
